2 compounds from patent US9315499B2, “Cytomegalovirus inhibitor compounds” (Boehringer Ingelheim International GmbH, priority 2012, dated 2016) can be followed below.

The target in the test is HCMV polymerase (UL54) (Human cytomegalovirus (strain AD169) (HHV-5) (Human herpesvirus 5), UniProt P08546). Nature of the test: biochemical. The conditions noted are these: LANCE TR-FRET, purified recombinant GST-UL54; read-out: Example C (IC50 nM). Here is the method:
HCMV Polymerase LANCE TR-FRET Assay
This non-radiometric assay determines the enzymatic activity of purified recombinant HCMV polymerase (UL54) using a Digoxigenin-labeled oligonucleotide priming a heteropolymeric template. The enzymatic activity is determined by incorporating Biotin-dUTP in the nascent complementary strand. The signal is generated by Fluorescence Resonance Energy Transfer from the donor (Anti-Digoxigenin-Europium Chelate binding with the primer) to the acceptor Streptavidin-AlloPhycoCyanin (SA-APC) binding to the biotin of the labeled nucleotides incorporated in proximity.
Serial dilutions of the DMSO stock compound solution are performed using DMSO in columns 2-11 and 14-23. DMSO alone is present in columns 1, 12, 13 and 24. Three μL of the DMSO serial dilutions is transferred and diluted using 21 μL of compound dilution buffer (10 mM Hepes pH 7.5, 25 mM KCl, 5 mM MgCl2, 1 mM TCEP) to obtain 12.5% DMSO. 4 μL per well of the 12.5% DMSO serial dilution compound solution is added to the assay plate. The plate is centrifuged at 200×g for 30 sec. […]
To perform the assay, 3 μL of the enzyme solution is added to columns 2-12 and 14-24. […] The signal is read on the Envision plate reader (Perkin-Elmer) or equivalent.

Consider `O=C(NCc1ccc(Cl)cc1)c1cc2cccnc2n(CC(=O)N2CCC(C(=O)O)C2)c1=O` (centres unmarked) [Compound 1029], for which the IC50 came to 6200 nM.

For `Nc1c(Br)cnc2c1cc(C(=O)NCc1ccc(Cl)cc1)c(=O)n2CC(=O)N1CCC(CO)C1` (centres unmarked) [Compound 6022], the IC50 came to 83 nM.
